Measurements: EP4345091A1, “BENZOIC ACID DERIVATIVES, METHODS AND USES THEREOF” (priority 2022, dated 2024)
≈ marks a conversion by molar mass, not a printed value. Where two headings read alike, the source gives them in different places.

Columns and labels:
[1] = Chemical stability in phosphate buffer pH 7.4
Description: (§3) Chemical hydrolysis was evaluated in phosphate buffer at physiological pH (7.4) to determine its influence in enzymatic studies.
(§4) 1176 µL pH 7.4 phosphate buffer or pH 5.9 phosphate buffer, 18 µL ACN and 6 µL of a 10-1 M stock solution of the prodrug in ACN were mixed in a 2mL vial. The solution was incubated at 37 °C and 50 µL aliquots were removed, mixed with 450 µL of ACN: H2O 1:1. The solution was analysed by HPLC, the remaining substrate and the correspondent acid were both measured.
(§5) The eluant was a mixture of acetonitrile (60%/70%) and aqueous phosphate buffer with 5% of KH2PO4/H3PO4 0.025M (40%/30%). The flow rate was always 1 mL/1 min and wavelength was set at 230 nm. All quantifications were evaluated using calibration curves from stock solutions.
(§6) The initial substrate concentration was 5 x 10^-4 M in all stability assays. All incubations were carried out at pH 7.4 and 37 °C under agitation using the phosphate buffer described above as diluting agent. […] Acetonitrile (2%) was used in all studies to ensure adequate solubilization of the substrates.

[2] = Stability in human plasma (enzymatic hydrolysis)
Description: The studies of stability in human plasma were performed in human plasma diluted to 80% with phosphate buffer pH 7.4 of total concentration 0.05 M and ionic strength 0.15 M at 37°C. […] Study of enzymatic hydrolysis. […] Initial substrate concentration (ester) - 5×10^-4M with 2% ACN.
Pooled human plasma (960 µL), pH 7.4 phosphate buffered saline (216 µL), 18 µL ACN and 6 µL of a 10-1 M stock solution of the prodrug in ACN were mixed in a 2mL vial. The suspensions were incubated at 37 °C and 50 µL aliquots were removed, mixed with 450 µL of ACN: ZnSO4 1% 1:1 and centrifuged. The supernatant was removed and analysed by HPLC, the remaining substrate and the correspondent acid measured.
Two HPLC systems were used. The buffer and plasma stability studies were performed in an HPLC system with a photodiode detector L-3000 Photo Diode Array Detector, Merck-Hitachi L-6000 pump, Merck-Hitachi D-2500 integrator, and Merck RP-8 column. […] The eluant was a mixture of acetonitrile (60%/70%) and aqueous phosphate buffer with 5% of KH2PO4/H3PO4 0.025M (40%/30%). The flow rate was always 1 mL/1 min and wavelength was set at 230 nm. All quantifications were evaluated using calibration curves from stock solutions.
The initial substrate concentration was 5 x 10^-4 M in all stability assays. All incubations were carried out at pH 7.4 and 37 °C under agitation using the phosphate buffer described above as diluting agent. […] Acetonitrile (2%) was used in all studies to ensure adequate solubilization of the substrates. The benzoates were added from 10 to 1M acetonitrile stock solutions. After incubation, aliquots of 50 µL were taken into vials containing 450 µL of a 1:1 solution of 1% zinc sulfate and acetonitrile, mixed in a vortex and centrifuged for 10 min at 15,000 rpm. The supernatant was then injected into the HPLC and analysed for quantification of benzoic acid and remaining benzoate. All quantifications were performed using calibration curves.

[3] = system: human monocytic cell line THP-1 (ATCC56 TIB202); assay: Cytotoxicity assay in THP-1 cells; assay type: cell-based; settings: toxicity/activity index: ratio LC50 (THP-1) / MIC (M. tuberculosis H37Rv)
Description: (§1) Cytotoxicity results were obtained through lethal concentration for 50% of the cell population, LC50. Table 6. Results obtained from cytotoxicity assays for the esters, represented by LD50 in µg/mL and comparison with MIC values, in µg/mL with toxicity/activity (T/A) index.
(§2) The T/A index quantitatively is the ratio between the lethal concentration (LC50) given by the minimum inhibitory concentration (MIC).

[4] = Cytotoxicity assay in THP-1 cells; assay type: cell-based, human; settings: human, THP-1 cells, read-out: LC50 (the source's name)
Description: as §1, §2

[5] = Stability in Mycobacterium smegmatis homogenate (enzymatic hydrolysis); settings: pH 7.4; for half-life: Mycobacterium smegmatis; for half-life at 500 µM: mycobacterium smegmatis homogenate
[6] = system: Mycobacterium smegmatis homogenate; assay: as above; settings: Mycobacterium smegmatis homogenate, 37°C
[7] = system: Mycobacterium tuberculosis H37Rv; assay: MIC and MBC by broth microdilution against M. tuberculosis H37Rv; assay type: cell-based, Mycobacterium tuberculosis H37Rv (ATCC 27294)
[8] = pH 7.4
Description: as §3, §4, §5, §6

M. bovis BCG = assay: microbe, parasite or virus in culture; assay type: cell-based; settings: Mycobacterium tuberculosis variant bovis BCG
[9] = system: Mycobacterium Bovis BCG infecting human macrophages THP-1; assay type: cell-based; settings: compound concentration 2 µg/ml
M. smegmatis mc2 155 = assay: MIC and MBC against M. smegmatis; assay type: cell-based; settings: Mycolicibacterium smegmatis, MC2155
[10] = THP-1 monocytic cells, lethal concentration for 50% of the cell population
[11] = Mycobacterium tuberculosis, H37RV, M. tuberculosis H37Rv, Table 3, read-out: MBC
[12] = Mycobacterium tuberculosis, H37RV, M. tuberculosis H37Rv, Tables 3, 6 and 7, read-out: MIC
[13] = lethal concentration for 50% of the cell population
[14] = Mycobacterium tuberculosis, H37RV
[15] = Mycobacterium tuberculosis, H37RV, M. tuberculosis H37Rv, Table 3
[16] = Mycobacterium tuberculosis, H37RV, M. tuberculosis H37Rv, Tables 3, 6 and 7

SMILES | Degradation (%) 24h [1] | Degradation (%) 48h [1] | Degradation (%) 72h [1] | Degradation (%) 168h [1] | Degradation (%) 332h [1] | Degradation (%) 24h [2] | Degradation (%) 48h [2] | Degradation (%) 72h [2] | T/A [3] | half-life [5] | Degradation (%) 24h [6] | Degradation (%) 48h [6] | MBC [7, 11] | MIC [7, 12] | half-life at 500 µM [5] | other results
CCCCNC(=O)c1cc([N+](=O)[O-])cc(C(F)(F)F)c1 [Compound 8a, N-butyl-3-nitro-5-(trifluoromethyl)-benzamide] | 0% | 0% | 0% | 0% | 0% | 0% | 0% | 0% | 21 | 2.66 ± 0.171 days | 23% | 41% | 2 µg/mL (≈ 6.89 µM) | 2 µg/mL (≈ 6.89 µM) |  | CC50 [4, 10]: 41 µg/mL (≈ 141 µM)
CCCCOC(=O)c1cc([N+](=O)[O-])cc([N+](=O)[O-])c1 [Compound 3a] | 10% | 14% | 18% | 40% | 65% | 86% | 98% | 100% | 14 |  | 93% | 99% |  |  | 379 ± 26.4 min | CC50 [4, 13]: 456 µg/mL (≈ 1700 µM); MBC [7, 14]: 128 µg/mL (≈ 477 µM); MIC [7, 14]: 32 µg/mL (≈ 119 µM)
CCCCOC(=O)c1ccccc1 [Compound 1a, Butyl benzoate] | 0% | 0% | 0% | 1% | 2% | 100% | 100% | 100% |  | 0.00833 ± 0.000417 days | 100% | 100% | > 256 µg/mL | > 256 µg/mL |  | 
CCCCOC(=O)c1cc([N+](=O)[O-])cc(C(F)(F)F)c1 [Compound 4a, Butyl 3-nitro-5-(trifluoromethyl)benzoate] | 5% | 12% | 16% | 35% | 60% | 95% | 100% | 100% | 0.54 | 0.223 ± 0.0183 days | 95% | 100% | 1020 µg/mL (≈ 3520 µM) | 1020 µg/mL (≈ 3520 µM) |  | CC50 [4, 10]: 552 µg/mL (≈ 1900 µM)
CCCCCCOC(=O)c1cc([N+](=O)[O-])cc(C(F)(F)F)c1 [Compound 4b, Hexyl 3-nitro-5-(trifluoromethyl)benzoate] |  |  |  |  |  | 72% | 94% | 98% | 0.62 | 4.38 ± 0.417 days | 15% | 27% | 1020 µg/mL (≈ 3210 µM) | 1020 µg/mL (≈ 3210 µM) |  | CC50 [4, 10]: 639 µg/mL (≈ 2000 µM)
CCCCOC(=O)c1ccc([N+](=O)[O-])cc1 [Compound 2a] |  |  |  |  |  |  |  |  |  |  | 99% | 100% |  |  | 208 ± 29.4 min | Degradation (%) 24h [8]: 0%; Degradation (%) 48h [8]: 1%; Degradation (%) 72h [8]: 1%; Degradation (%) 168h [8]: 2%; Degradation (%) 332h [8]: 4%; MBC [7, 15]: 128 µg/mL (≈ 573 µM); MIC [7, 16]: 64 µg/mL (≈ 287 µM)
CCCCCCNC(=O)c1ccc([N+](=O)[O-])cc1 [Compound 6b, N-hexyl-4-nitrobenzamide] |  |  |  |  |  |  |  |  |  | 3.63 ± 0.242 days | 17% | 32% | 64 µg/mL (≈ 256 µM) | 32 µg/mL (≈ 128 µM) |  | 
CCCCNC(=O)c1cc([N+](=O)[O-])cc([N+](=O)[O-])c1 [Compound 7a, N-butyl-3.5-dinitrobenzamide] | 0% | 0% | 0% | 0% | 0% | 0% | 0% | 0% | 52 |  | 52% | 77% |  |  | 1370 ± 90 min | MBC (M. bovis BCG): 1 µg/mL (≈ 3.74 µM); MIC (M. bovis BCG): 0.5 µg/mL (≈ 1.87 µM); CC50 [4, 13]: 26 µg/mL (≈ 97.3 µM)
CCCCCCCCOC(=O)c1ccccc1 [Compound 1c, Octyl benzoate] | 0% | 0% | 0% | 0% | 0% | 45% | 71% | 84% | 6 |  | 100% | 100% | > 256 µg/mL | 256 µg/mL (≈ 1090 µM) | 118 ± 1.2 min | CC50 [4, 13]: 1650 µg/mL (≈ 7020 µM)
CCCCCCOC(=O)c1cc([N+](=O)[O-])cc([N+](=O)[O-])c1 [Compound 3b] |  |  |  |  |  | 74% | 93% | 98% | 17 |  | 19% | 34% |  |  | 4850 ± 330 min | CC50 [4, 13]: 528 µg/mL (≈ 1780 µM); CFU x10^4 ([9]; Time 0 days): 9.2 CFUs per mL; CFU x10^4 ([9]; Time 1 day): 14.58 CFUs per mL; CFU x10^4 ([9]; Time 3 days): 11.87 CFUs per mL; CFU x10^4 ([9]; Time 7 days): 9.83 CFUs per mL
CCCCCCCCOC(=O)c1ccc([N+](=O)[O-])cc1 [Compound 2c, Octyl 4-nitrobenzoate] | 0% | 1% | 1% | 3% | 6% | 100% | 100% | 100% | 82 | 1.62 ± 0.321 days | 35% | 58% | 128 µg/mL (≈ 458 µM) | 8 µg/mL (≈ 28.6 µM) |  | CC50 [4, 10]: 657 µg/mL (≈ 2350 µM)
CCCCCCOC(=O)c1ccc([N+](=O)[O-])cc1 [Compound 2b] |  |  |  |  |  |  |  |  |  |  | 77% | 94% |  |  | 690 ± 36 min | MBC [7, 15]: 128 µg/mL (≈ 509 µM); MIC [7, 16]: 64 µg/mL (≈ 255 µM)
CCCCCCCCCCCCOC(=O)c1ccc([N+](=O)[O-])cc1 [Compound 2e] |  |  |  |  |  |  |  |  |  |  | 19% | 34% |  |  | 4760 ± 282 min | Degradation (%) 24h [8]: 0%; Degradation (%) 48h [8]: 0%; Degradation (%) 72h [8]: 0%; Degradation (%) 168h [8]: 1%; Degradation (%) 332h [8]: 1%; MBC [7, 15]: 64 µg/mL (≈ 191 µM); MIC [7, 16]: 8 µg/mL (≈ 23.8 µM)
CCCCNC(=O)c1ccc([N+](=O)[O-])cc1 [Compound 6a, N-butyl-4-nitrobenzamide] | 0% | 0% | 0% | 0% | 0% | 12% | 23% | 32% |  | 3.19 ± 0.221 days | 20% | 35% | 256 µg/mL (≈ 1150 µM) | 128 µg/mL (≈ 576 µM) |  | 
CCCCCCCCCCCCCCCCNC(=O)c1cc([N+](=O)[O-])cc([N+](=O)[O-])c1 [Compound 7g, N-hexadecyl-3.5-dinitrobenzamide] |  |  |  |  |  |  |  |  |  |  | 0% | 0% |  |  |  | MBC (M. smegmatis mc2 155): > 64 µg/mL; MIC (M. smegmatis mc2 155): 32 µg/mL (≈ 73.5 µM); MBC (M. bovis BCG): 4 µg/mL (≈ 9.18 µM); MIC (M. bovis BCG): 2 µg/mL (≈ 4.59 µM); CC50 ([4]; n/d (no toxicity at maximum tested dose)): > 512 µg/mL; MBC ([7]; M. tuberculosis H37Rv, Table 4): 2 µg/mL (≈ 4.59 µM); MIC ([7]; M. tuberculosis H37Rv, Table 4): 2 µg/mL (≈ 4.59 µM); MBC [7, 14]: 2 µg/mL (≈ 4.59 µM); MIC [7, 14]: 2 µg/mL (≈ 4.59 µM)
CCCCCCOC(=O)c1ccccc1 [Compound 1b, Hexyl benzoate] |  |  |  |  |  | 94% | 100% | 100% |  | 0.00875 ± 0.000417 days | 100% | 100% |  |  |  | 
CCCCCCCCCCCCOC(=O)c1ccccc1 [Compound 1e, Dodecyl benzoate] | 0% | 0% | 0% | 0% | 0% | 3% | 6% | 9% |  | 3.81 ± 0.129 days | 16% | 30% | 512 µg/mL (≈ 1760 µM) | 256 µg/mL (≈ 881 µM) |  | 
